Results on 21 compounds are retold here after patent US20250122225A1, “MASP-2 INHIBITORS AND METHODS OF USE” (Omeros Corporation, priority 2023, published 2025).

One assay has as its target T1, MASP-2 (CCP1-CCP2-SP) (Homo sapiens, UniProt O00187).
T1 construct: 15 μL of Enzyme MASP-2 (CCP1-CCP2-SP) in Assay Buffer
Put plainly: Enzymatic assay for MASP-2 inhibitory activity (fluorogenic substrate). It counts as biochemical. The protocol: The MASP-2 assay utilizes a fluorogenic substrate, based on the cleavage site for its natural substrate C2. The assay was run at room temperature in an assay buffer containing 20 mM HEPES, pH 7.4, 140 mM NaCl and 0.1% Tween 20. Assay parameters were adjusted such that the assay was linear with respect to time, enzyme, and substrate concentrations. Under the optimized assays conditions, IC50 values were equivalent to Ki values, except in the few cases of “tight binding” inhibitors. Cases of “tight binding” or possible “slow binding” inhibitors were handled by the methods described in Copeland R. A. (2013) Evaluation of Enzyme Inhibitors in Drug Discovery. 2nd Ed., John Wiley and Sons, Inc., Chapters 5-7.
The MASP-2 assay protocol was carried out as follows. Test compounds were serially diluted in DMSO and then 100 nL of each dilution was transferred to the assay plate(s). 10 μL of Assay Buffer was added, followed by 15 μL of Enzyme MASP-2 (CCP1-CCP2-SP) in Assay Buffer. 15 μL of Substrate in Assay Buffer was then added and the mixture was mixed to start the reaction. After 20 min at room temperature, 15 μL of a stop solution (0.1 M acetic acid) was added, the sample was mixed, and the plates were read on a SpectraMax i3x Microplate Reader with the data exported as an Excel file. Each assay plate included a “no inhibitor” (DMSO only) control, a “no enzyme” control, and a reference inhibitor control. % Activity values=100*(average test comp. fluorescence−average “no enzyme” fluorescence)/(average “DMSO only” fluorescence−average “no enzyme” fluorescence). IC50 and Ki replicate values were very reproducible, with values well within ±2-fold.

The next assay addresses T2, human α-thrombin (Homo sapiens, UniProt P00734).
T2 construct: enzyme (human α-thrombin (BioPharm® Lab.)) in assay buffer; purchased BioPharm® Lab
Briefly: Enzymatic assay for thrombin (fluorogenic peptide substrate Boc-VPR-AMC). It counts as biochemical. The protocol: The thrombin assay utilizes a fluorogenic peptide substrate (Boc-VPR-AMC (R&D Systems) and was run at room temperature in an assay buffer containing 20 mM Hepes, pH 7.4, 140 mM NaCl and 0.1% Tween 20. Assay parameters were adjusted such that the assay was linear with respect to time, enzyme, and substrate concentrations. Under these optimized assays conditions, IC50 values were equivalent to Ki values, except in a few cases of “tight binding” inhibitors. Cases of “tight binding” or possible “slow binding” inhibitors were handled by the methods described in Copeland R. A. (2013) Evaluation of Enzyme Inhibitors in Drug Discovery. 2nd Ed. John Wiley and Sons, Inc., Chapters 5-7.
The thrombin assay protocol was carried out as follows. Test compounds were serially diluted in DMSO and then 100 nL of each dilution was transferred to the assay plate(s). 10 μL of Assay Buffer was added, followed by 15 μL of enzyme (human α-thrombin (BioPharm® Lab.)) in assay buffer. 15 μL of substrate in assay buffer was then added and the sample mixed to start the reaction. After 20 min at room temperature, 15 μL of a stop solution (0.1 M acetic acid) was added, the sample was mixed, and the plates were read on a SpectraMax® i3x Microplate Reader with the data exported as Excel files. Each assay plate included a “no inhibitor” (DMSO only) control, a “no enzyme” control, and a reference inhibitor control. % Activity values=100*(ave. test comp. fluorescence−ave. “no enz” fluorescence)/(ave. “DMSO only” fluorescence−ave. “no enz” fluorescence). IC50 and Ki values were very reproducible, with values falling well within ±2-fold.

Counter-ions that a name gives are not always drawn.

T1 sequence (O00187 445-686 limits assumed): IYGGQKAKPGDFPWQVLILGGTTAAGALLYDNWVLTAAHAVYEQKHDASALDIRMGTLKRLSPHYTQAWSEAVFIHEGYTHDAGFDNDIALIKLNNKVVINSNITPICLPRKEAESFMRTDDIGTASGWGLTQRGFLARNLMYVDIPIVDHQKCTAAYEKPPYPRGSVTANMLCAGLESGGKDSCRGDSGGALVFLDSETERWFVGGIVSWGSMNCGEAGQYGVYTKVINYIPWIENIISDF
T1 sequence (O00187 287-444 partner limits assumed): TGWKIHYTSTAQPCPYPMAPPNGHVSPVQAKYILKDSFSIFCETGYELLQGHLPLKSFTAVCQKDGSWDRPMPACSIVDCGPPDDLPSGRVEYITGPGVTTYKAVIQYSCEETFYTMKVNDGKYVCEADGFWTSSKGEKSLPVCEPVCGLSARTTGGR

By Ki is commonly meant a measure of affinity in units of concentration, obtained from inhibition or displacement. A lower Ki goes with a stronger hold on the target. Take `Cc1nc(N)ccc1CNC(=O)[C@@H]1CCc2c(Cl)nc(NCCC(F)F)c(=O)n21` [Compound 18, (S)-N-((6-amino-2-methylpyridin-3-yl)methyl)-1-chloro-3-((3,3-difluoropropyl)amino)-4-oxo-4,6,7,8-tetrahydropyrrolo[1,2-a]pyrazine-6-carboxamide]: the Ki on MASP-2 (CCP1-CCP2-SP) was under 500 nM; on human α-thrombin, 2.5 to 10 µM.

Turning to `O=C(NCc1cc2cnccc2[nH]1)[C@@H]1CCc2c(Cl)nc(NCCC(F)F)c(=O)n21` [Compound 19, (S)-N-((1H-pyrrolo[3,2-c]pyridin-2-yl)methyl)-1-chloro-3-((3,3-difluoropropyl)amino)-4-oxo-4,6,7,8-tetrahydropyrrolo[1,2-a]pyrazine-6-carboxamide], the Ki on MASP-2 (CCP1-CCP2-SP) was under 500 nM; on human α-thrombin, over 25 µM.

For the compound `Cc1ccc(F)c(CNc2nc(Cl)c3n(c2=O)[C@H](C(=O)NCc2ccc(N)nc2C)CC3)c1` [Compound 20, (S)-N-((6-amino-2-methylpyridin-3-yl)methyl)-1-chloro-3-((2-fluoro-5-methylbenzyl)amino)-4-oxo-4,6,7,8-tetrahydropyrrolo[1,2-a]pyrazine-6-carboxamide], the inhibitory constant (Ki) on MASP-2 (CCP1-CCP2-SP) is under 500 nM; on human α-thrombin it was 0.5 to 2.5 µM.

Regarding `Cc1ccc(F)c(CNc2nc(Cl)c3n(c2=O)[C@H](C(=O)NCc2cc4cnccc4[nH]2)CC3)c1` [Compound 21, (S)-N-((1H-pyrrolo[3,2-c]pyridin-2-yl)methyl)-1-chloro-3-((2-fluoro-5-methylbenzyl)amino)-4-oxo-4,6,7,8-tetrahydropyrrolo[1,2-a]pyrazine-6-carboxamide], the Ki was under 500 nM at MASP-2 (CCP1-CCP2-SP) and 2.5 to 10 µM on human α-thrombin.

As to `COCCCCNc1nc(Cl)c2n(c1=O)[C@H](C(=O)NCc1cc3cnccc3[nH]1)CC2` [Compound 22, (S)-N-((1H-pyrrolo[3,2-c]pyridin-2-yl)methyl)-1-chloro-3-((4-methoxybutyl)amino)-4-oxo-4,6,7,8-tetrahydropyrrolo[1,2-a]pyrazine-6-carboxamide], the Ki was under 500 nM at MASP-2 (CCP1-CCP2-SP) and 10 to 25 µM at human α-thrombin.

`Cc1cc(CNc2nc(Cl)c3n(c2=O)[C@H](C(=O)NCc2cc4cnccc4[nH]2)CC3)cc(C(F)(F)F)c1` [Compound 23, (S)-N-((1H-pyrrolo[3,2-c]pyridin-2-yl)methyl)-1-chloro-3-((3-methyl-5-(trifluoromethyl)benzyl)amino)-4-oxo-4,6,7,8-tetrahydropyrrolo[1,2-a]pyrazine-6-carboxamide]: the Ki at MASP-2 (CCP1-CCP2-SP) was under 500 nM; at human α-thrombin it was over 25 µM.

`Cc1cc(C)cc(CNc2nc(Cl)c3n(c2=O)[C@H](C(=O)NCc2ccc(N)nc2C)CC3)c1` [Compound 24, trifluoroacetate]: the Ki on MASP-2 (CCP1-CCP2-SP) is under 500 nM; on human α-thrombin it was 2.5 to 10 µM.

Take `O=C(NCc1cc2cnccc2[nH]1)[C@@H]1CCc2c(Cl)nc(NCc3cccc(F)c3)c(=O)n21` [Compound 25, (S)-N-((1H-pyrrolo[3,2-c]pyridin-2-yl)methyl)-1-chloro-3-((3-fluorobenzyl)amino)-4-oxo-4,6,7,8-tetrahydropyrrolo[1,2-a]pyrazine-6-carboxamide]: the Ki is under 500 nM on MASP-2 (CCP1-CCP2-SP) and 10 to 25 µM at human α-thrombin.

Regarding `Cc1ccc(CNc2nc(Cl)c3n(c2=O)[C@H](C(=O)NCc2cc4cnccc4[nH]2)CC3)cc1C` [Compound 26, (S)-N-((1H-pyrrolo[3,2-c]pyridin-2-yl)methyl)-1-chloro-3-((3,4-dimethylbenzyl)amino)-4-oxo-4,6,7,8-tetrahydropyrrolo[1,2-a]pyrazine-6-carboxamide], the Ki on MASP-2 (CCP1-CCP2-SP) is under 500 nM; on human α-thrombin, 10 to 25 µM.

Take `Nc1nc2cc(CNC(=O)[C@@H]3CCc4c(Cl)nc(NCc5ccccc5)c(=O)n43)ccc2[nH]1` [Compound 29, trifluoroacetate]: the Ki at MASP-2 (CCP1-CCP2-SP) was under 500 nM; on human α-thrombin, 10 to 25 µM.

Take `Cc1nc(N)ccc1CNC(=O)[C@@H]1CCc2c(Cl)nc(NCc3ccc(Cl)cc3)c(=O)n21` [Compound 30, trifluoroacetate]: the Ki is under 500 nM at MASP-2 (CCP1-CCP2-SP) and 2.5 to 10 µM on human α-thrombin.

As to `Cc1cc(C)cc(CNc2nc(Cl)c3n(c2=O)[C@H](C(=O)NCc2cc4c(s2)CNC4)CC3)c1` [Compound 31, (S)-1-chloro-N-((5,6-dihydro-4H-thieno[2,3-c]pyrrol-2-yl)methyl)-3-((3,5-dimethylbenzyl)amino)-4-oxo-4,6,7,8-tetrahydropyrrolo[1,2-a]pyrazine-6-carboxamide], the figures for the inhibition constant Ki at MASP-2 (CCP1-CCP2-SP) and on human α-thrombin were under 500 nM and 2.5 to 10 µM, respectively.

Consider `Cc1cccc(CNc2nc(Cl)c3n(c2=O)[C@H](C(=O)NCc2cc4c(s2)CNC4)CC3)c1F` [Compound 32, (S)-1-chloro-N-((5,6-dihydro-4H-thieno[2,3-c]pyrrol-2-yl)methyl)-3-((2-fluoro-3-methylbenzyl)amino)-4-oxo-4,6,7,8-tetrahydropyrrolo[1,2-a]pyrazine-6-carboxamide], for which the Ki on MASP-2 (CCP1-CCP2-SP) is under 500 nM; on human α-thrombin, 2.5 to 10 µM.

As for `Cc1cccc(CNc2nc(Cl)c3n(c2=O)[C@H](C(=O)NCc2cc4c(s2)CNC4)CC3)c1C` [Compound 33, (S)-1-chloro-N-((5,6-dihydro-4H-thieno[2,3-c]pyrrol-2-yl)methyl)-3-((2,3-dimethylbenzyl)amino)-4-oxo-4,6,7,8-tetrahydropyrrolo[1,2-a]pyrazine-6-carboxamide], the Ki at MASP-2 (CCP1-CCP2-SP) was under 500 nM; at human α-thrombin, 2.5 to 10 µM.

For `O=C(NCc1cc2c(s1)CNC2)[C@@H]1CCc2c(Cl)nc(NCc3cccc(C(F)F)c3)c(=O)n21` [Compound 34, (S)-1-chloro-3-((3-(difluoromethyl)benzyl)amino)-N-((5,6-dihydro-4H-thieno[2,3-c]pyrrol-2-yl)methyl)-4-oxo-4,6,7,8-tetrahydropyrrolo[1,2-a]pyrazine-6-carboxamide], the Ki was under 500 nM at MASP-2 (CCP1-CCP2-SP) and 2.5 to 10 µM on human α-thrombin.

For `O=C(NCc1cc2c(s1)CNC2)[C@@H]1CCc2c(Cl)nc(NCc3ccccc3)c(=O)n21` [Compound 35], the Ki is under 500 nM on MASP-2 (CCP1-CCP2-SP) and 2.5 to 10 µM on human α-thrombin.

With `Cc1cc(C)cc(CNc2ncc3n(c2=O)[C@H](C(=O)NCc2ccc(N)nc2C)CC3)c1` [Compound 36, (S)—N-((6-amino-2-methylpyridin-3-yl)methyl)-3-((3,5-dimethylbenzyl)amino)-4-oxo-4,6,7,8-tetrahydropyrrolo[1,2-a]pyrazine-6-carboxamide], the values for the Ki on MASP-2 (CCP1-CCP2-SP) and on human α-thrombin were under 500 nM and under 0.5 µM, respectively.

As to `Cc1cc(CNc2ncc3n(c2=O)[C@H](C(=O)NCc2ccc(N)nc2C)CC3)cc(C(F)(F)F)c1` [Compound 37, (S)-N-((6-amino-2-methylpyridin-3-yl)methyl)-3-((3-methyl-5-(trifluoromethyl)benzyl)amino)-4-oxo-4,6,7,8-tetrahydropyrrolo[1,2-a]pyrazine-6-carboxamide], the Ki at MASP-2 (CCP1-CCP2-SP) is under 500 nM; on human α-thrombin, under 0.5 µM.

`Cc1ccc(CNc2ncc3n(c2=O)[C@H](C(=O)NCc2ccc(N)nc2C)CC3)cc1C` [Compound 38, (S)-N-((6-amino-2-methylpyridin-3-yl)methyl)-3-((3,4-dimethylbenzyl)amino)-4-oxo-4,6,7,8-tetrahydropyrrolo[1,2-a]pyrazine-6-carboxamide]: the Ki at MASP-2 (CCP1-CCP2-SP) was under 500 nM; at human α-thrombin it was under 0.5 µM.

Regarding `COc1cccc(CNc2ncc3n(c2=O)[C@H](C(=O)NCc2cc4cnccc4[nH]2)CC3)c1` [Compound 39, (S)-N-((1H-pyrrolo[3,2-c]pyridin-2-yl)methyl)-3-((3-methoxybenzyl)amino)-4-oxo-4,6,7,8-tetrahydropyrrolo[1,2-a]pyrazine-6-carboxamide trifluoroacetate], the Ki at MASP-2 (CCP1-CCP2-SP) is under 500 nM; at human α-thrombin, 2.5 to 10 µM.

Take `Cc1cc(C)cc(CNc2ncc3n(c2=O)[C@H](C(=O)NCc2ccccn2)CC3)c1` [Compound 40, (S)-3-((3,5-dimethylbenzyl)amino)-4-oxo-N-(pyridin-2-ylmethyl)-4,6,7,8-tetrahydropyrrolo[1,2-a]pyrazine-6-carboxamide trifluoroacetate]: the figures for the Ki at MASP-2 (CCP1-CCP2-SP) and at human α-thrombin were 10000 to 25000 nM and over 25 µM, respectively.
